# Measurements reported in PubChem BioAssay (NCI).
#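 1) Cells in 96-well plates. 2) Compound, 48 h, 5 concentrations. 3) Linear interpolation between surrounding doses. 4) Unreached endpoint = highest concentration. GI50 = concentration required for 50% inhibition of growth. Definition used: TGI = concentration required for complete inhibition of growth.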
# Key:
# Assay in all cases: NCI-60 cell line screen, 48 h
# OVCAR-3 ovarian = test system: OVCAR-3 ovarian
# SNB-19 CNS = test system: SNB-19 CNS
# T-47D breast = test system: T-47D breast
# HCT-15 colon = test system: HCT-15 colon
# UACC-62 melanoma = test system: UACC-62 melanoma
# PC-3 prostate = test system: PC-3 prostate
# A498 renal = test system: A498 renal
# SR leukemia = test system: SR leukemia
# COLO 205 colon = test system: COLO 205 colon
# ACHN renal = test system: ACHN renal
# CAKI-1 renal = test system: CAKI-1 renal
# SF-295 CNS = test system: SF-295 CNS
# HL-60(TB) leukemia = test system: HL-60(TB) leukemia
# IGROV1 ovarian = test system: IGROV1 ovarian
# HOP-62 NSCLC = test system: HOP-62 NSCLC
# M14 melanoma = test system: M14 melanoma
# SW-620 colon = test system: SW-620 colon
# SK-MEL-2 melanoma = test system: SK-MEL-2 melanoma
# HCC-2998 colon = test system: HCC-2998 colon
# MDA-MB-435 = test system: MDA-MB-435
# NCI-H23 lung = test system: NCI-H23 lung
# OVCAR-5 ovarian = test system: OVCAR-5 ovarian
# K-562 leukemia = test system: K-562 leukemia
# 786-0 renal = test system: 786-0 renal
# MOLT-4 leukemia = test system: MOLT-4 leukemia
# A549 NSCLC = test system: A549 NSCLC
# RPMI-8226 leukemia = test system: RPMI-8226 leukemia
# NCI-H522 lung = test system: NCI-H522 lung
# SNB-75 CNS = test system: SNB-75 CNS
# BT-549 breast = test system: BT-549 breast
# HOP-92 NSCLC = test system: HOP-92 NSCLC
# KM12 colon = test system: KM12 colon
# EKVX NSCLC = test system: EKVX NSCLC
# NCI-H226 lung = test system: NCI-H226 lung
# OVCAR-4 ovarian = test system: OVCAR-4 ovarian
# UACC-257 melanoma = test system: UACC-257 melanoma
# NCI-H460 lung = test system: NCI-H460 lung
# HT29 colon = test system: HT29 colon
# SF-268 CNS = test system: SF-268 CNS
# CCRF-CEM leukemia = test system: CCRF-CEM leukemia
# SF-539 CNS = test system: SF-539 CNS
# MCF7 breast = test system: MCF7 breast
# HS 578T breast = test system: HS 578T breast
# UO-31 renal = test system: UO-31 renal
# SK-MEL-28 melanoma = test system: SK-MEL-28 melanoma
# SK-OV-3 ovarian = test system: SK-OV-3 ovarian
# SK-MEL-5 melanoma = test system: SK-MEL-5 melanoma
# OVCAR-8 ovarian = test system: OVCAR-8 ovarian
# TK-10 renal = test system: TK-10 renal
# MALME-3M melanoma = test system: MALME-3M melanoma
# SN12C renal = test system: SN12C renal
# MDA-MB-231 breast = test system: MDA-MB-231 breast
# LOX IMVI melanoma = test system: LOX IMVI melanoma
# HCT-116 colon = test system: HCT-116 colon
# DU-145 prostate = test system: DU-145 prostate
# U251 CNS = test system: U251 CNS
# NCI/ADR-RES ovarian = test system: NCI/ADR-RES ovarian
smiles,measurement,setting,value
CN1CCN(c2ccc(Nc3nc(NCCCNS(=O)(=O)c4ccc(F)cc4)c4sccc4n3)cc2)CC1,GI50,OVCAR-3 ovarian,17.8 µM
same,TGI,OVCAR-3 ovarian,55.7 µM
same,GI50,SNB-19 CNS,23 µM
same,TGI,SNB-19 CNS,61.1 µM
same,GI50,T-47D breast,15 µM
same,TGI,T-47D breast,40.4 µM
same,GI50,HCT-15 colon,4.6 µM
same,TGI,HCT-15 colon,20.1 µM
same,GI50,UACC-62 melanoma,12.5 µM
same,TGI,UACC-62 melanoma,25.2 µM
same,GI50,PC-3 prostate,13.4 µM
same,TGI,PC-3 prostate,46.1 µM
same,GI50,A498 renal,16.1 µM
same,TGI,A498 renal,32.4 µM
same,GI50,SR leukemia,2830 nM
same,TGI,SR leukemia,> 100 µM
same,GI50,COLO 205 colon,14.2 µM
same,TGI,COLO 205 colon,32.2 µM
same,GI50,ACHN renal,17.1 µM
same,TGI,ACHN renal,40.2 µM
same,GI50,CAKI-1 renal,15.2 µM
same,TGI,CAKI-1 renal,28.4 µM
same,GI50,SF-295 CNS,13.3 µM
same,TGI,SF-295 CNS,26.6 µM
same,GI50,HL-60(TB) leukemia,19.8 µM
same,TGI,HL-60(TB) leukemia,45.4 µM
same,GI50,IGROV1 ovarian,12.9 µM
same,TGI,IGROV1 ovarian,28 µM
same,GI50,HOP-62 NSCLC,15.4 µM
same,TGI,HOP-62 NSCLC,32.8 µM
same,GI50,M14 melanoma,2470 nM
same,TGI,M14 melanoma,7.33 µM
same,GI50,SW-620 colon,15.2 µM
same,TGI,SW-620 colon,30.1 µM
same,GI50,SK-MEL-2 melanoma,15.5 µM
same,TGI,SK-MEL-2 melanoma,29.7 µM
same,GI50,HCC-2998 colon,14.9 µM
same,TGI,HCC-2998 colon,30.8 µM
same,GI50,MDA-MB-435,14.3 µM
same,TGI,MDA-MB-435,27.4 µM
same,GI50,NCI-H23 lung,14.8 µM
same,TGI,NCI-H23 lung,30.3 µM
same,GI50,OVCAR-5 ovarian,18.1 µM
same,TGI,OVCAR-5 ovarian,55.9 µM
same,GI50,K-562 leukemia,2820 nM
same,TGI,K-562 leukemia,> 100 µM
same,GI50,786-0 renal,15.6 µM
same,TGI,786-0 renal,34.4 µM
same,GI50,MOLT-4 leukemia,6.02 µM
same,TGI,MOLT-4 leukemia,43.1 µM
same,GI50,A549 NSCLC,21.2 µM
same,TGI,A549 NSCLC,97.9 µM
same,GI50,RPMI-8226 leukemia,5.24 µM
same,TGI,RPMI-8226 leukemia,37.6 µM
same,GI50,NCI-H522 lung,13.3 µM
same,TGI,NCI-H522 lung,27.5 µM
same,GI50,SNB-75 CNS,271 nM
same,TGI,SNB-75 CNS,20.3 µM
same,GI50,BT-549 breast,13.9 µM
same,TGI,BT-549 breast,31.4 µM
same,GI50,HOP-92 NSCLC,4.72 µM
same,TGI,HOP-92 NSCLC,26.1 µM
same,GI50,KM12 colon,16.9 µM
same,TGI,KM12 colon,56.4 µM
same,GI50,EKVX NSCLC,21 µM
same,TGI,EKVX NSCLC,73.8 µM
same,GI50,NCI-H226 lung,10.8 µM
same,TGI,NCI-H226 lung,23.1 µM
same,GI50,OVCAR-4 ovarian,10.2 µM
same,TGI,OVCAR-4 ovarian,38.8 µM
same,GI50,UACC-257 melanoma,15.1 µM
same,TGI,UACC-257 melanoma,30.3 µM
same,GI50,NCI-H460 lung,14.5 µM
same,TGI,NCI-H460 lung,29.2 µM
same,GI50,HT29 colon,5.18 µM
same,TGI,HT29 colon,25 µM
same,GI50,SF-268 CNS,12.8 µM
same,TGI,SF-268 CNS,63.4 µM
same,GI50,CCRF-CEM leukemia,22.2 µM
same,TGI,CCRF-CEM leukemia,> 100 µM
same,GI50,SF-539 CNS,12 µM
same,TGI,SF-539 CNS,24.4 µM
same,GI50,MCF7 breast,7.39 µM
same,TGI,MCF7 breast,20.2 µM
same,GI50,HS 578T breast,4.92 µM
same,TGI,HS 578T breast,25.4 µM
same,GI50,UO-31 renal,10.7 µM
same,TGI,UO-31 renal,28.7 µM
same,GI50,SK-MEL-28 melanoma,13.1 µM
same,TGI,SK-MEL-28 melanoma,25.8 µM
same,GI50,SK-OV-3 ovarian,27 µM
same,TGI,SK-OV-3 ovarian,78.4 µM
same,GI50,SK-MEL-5 melanoma,15.8 µM
same,TGI,SK-MEL-5 melanoma,29.2 µM
same,GI50,OVCAR-8 ovarian,14.9 µM
same,TGI,OVCAR-8 ovarian,42.8 µM
same,GI50,TK-10 renal,24.6 µM
same,TGI,TK-10 renal,61.5 µM
same,GI50,MALME-3M melanoma,12.1 µM
same,TGI,MALME-3M melanoma,24.4 µM
same,GI50,SN12C renal,13.6 µM
same,TGI,SN12C renal,37.2 µM
same,GI50,MDA-MB-231 breast,11 µM
same,TGI,MDA-MB-231 breast,27.3 µM
same,GI50,LOX IMVI melanoma,12 µM
same,TGI,LOX IMVI melanoma,25.6 µM
same,GI50,HCT-116 colon,5.35 µM
same,TGI,HCT-116 colon,28.5 µM
same,GI50,DU-145 prostate,17.4 µM
same,TGI,DU-145 prostate,43 µM
same,GI50,U251 CNS,5.65 µM
same,TGI,U251 CNS,28.6 µM
same,GI50,NCI/ADR-RES ovarian,18.9 µM
same,TGI,NCI/ADR-RES ovarian,55.2 µM
